Assay [1] in a line: Cytotoxicity in human peripheral blood mononuclear (PBM) cells. The assay is classed as functional, cell-based.
Assay [2] is described as follows: In vitro anti-HIV activity was evaluated in human peripheral blood mononuclear (PBM) cells. The class given is functional.
Another assay has as its system Vero. Briefly: Cytotoxicity in Vero cells. The assay is classed as functional, cell-based. The settings on record: Chlorocebus sabaeus.
The species entered for assay [3] is Homo sapiens. Briefly: Cytotoxicity in 2.2.15 cells. The assay is classed as functional, cell-based. Particulars: HepG2 2.2.15.
The species entered for assay [4] is Homo sapiens. Briefly: In vitro anti-HBV activity in 2.2.15 cells. The assay is classed as functional, cell-based. The settings on record: HepG2 2.2.15.
Another assay deals with CCRF-CEM. Briefly: Cytotoxicity in CEM cells. The class given is functional, cell-based. Particulars: Homo sapiens.

Our source for the IC50 and EC50 values is ChEMBL document CHEMBL1151095, “Anti-human immunodeficiency virus type-1 (HIV-1) and anti-hepatitis B virus (HBV) activities of (2,3-dideoxy-2-fluoro--L-threo-pentofuranosyl)nucleosides” (Bioorg Med Chem Lett, 1995).

Molecules are shown by their SMILES.

Molecule `Cc1cn([C@H]2C[C@H](N=[N+]=[N-])[C@@H](CO)O2)c(=O)[nH]c1=O` [ZIDOVUDINE] returned a 50% inhibitory concentration (IC50) in assay [1] greater than 100 µM. The molecule further showed a concentration giving a half-maximal response (EC50) in assay [2] of 0.004 µM.
Regarding `Nc1ccn([C@@H]2O[C@H](CO)C[C@@H]2F)c(=O)n1`, the concentration for half-maximal inhibition (IC50) was greater than 100 µM in assay [1], greater than 100 µM in the assay on Vero, greater than 200 µM in the assay filed under Homo sapiens [3] and greater than 100 µM with CCRF-CEM. The EC50 in the assay listed under Homo sapiens [4] worked out at 4 µM; in assay [2], 16.2 µM.
As for `Nc1ncnc2c1ncn2[C@@H]1O[C@H](CO)C[C@@H]1F` [LODENOSINE], the IC50 in assay [1] is greater than 100 µM; with Vero, greater than 100 µM; in the assay listed under Homo sapiens [3], greater than 200 µM; in the assay with CCRF-CEM, greater than 100 µM. The results for the EC50 (in the assay filed under Homo sapiens [4]; in assay [2]) were greater than 10 µM and 100 µM, respectively.
